Test results taken from patent publication US12037329B2, “SphK inhibitors and methods of making and using same” (Washington University, priority 2021, dated 2024).
pIC50, pKi: −log10 of the molar value. “Also recorded” adds a separate entry of the source. Counter-ions that a name gives are not always drawn. Like-named read-outs stand apart in the source and are kept apart here. One block for each compound: values may come before it.

Assays:
[1] = molecular target: T1, SphK2 (Homo sapiens (Human), UniProt Q9NRA0); conditions: SphK2-selective inhibitors; cited from earlier work
[2] = molecular target: T1, SphK2; assay: ADP-Glo kinase assay, SphK2; format: biochemical; conditions: for pIC50: ADP-Glo assay, 50 μM ATP, recombinant human SphK2; for selectivity/specificity for SphK2 over SphK1: 125 μM of each compound, SphK2 versus SphK1, FIG. 5
Excerpt: The bioluminescence-based kinase assay such as ADP-Glo assay measures ADP formed from a kinase reaction with a luciferase. Upon the completion of a kinase reaction, the remaining ATP is depleted, the ADP produced in the kinase reaction is then converted to ATP and the detection is based on a sensitive and robust bioluminescence reaction. It has a broad linear range of ATP concentrations and high dynamic range. To determine the inhibition activity of the compounds, the ADP-Glo kinase assay was used which was able to detect down to 20% of 1 μM ATP to ADP conversion (FIG. 4A).
ADP-Glo (Promega, Madison, WI) kinase assay were used to evaluate the kinase activity of SphK. ATP to ADP standard curves were prepared in the kinase buffer to assess the linearity of the assay in order to calculate the amount of ADP produced in each tested conditions (FIG. 4A). SB10 (tenfold signal to background ra-tio) of SphK was also determined to evaluate the enzyme perfor-mance and to optimize the kinase reaction condition in this system. In brief, for SphK2, […], 100 μM of D-erythro-Sphingosine (Tocris Bioscience, Minneapolis, MN), and 2 ng of recombinant human SphK2 (R&D Systems, Minneapolis, MN) with desired concentration of each synthesized compound were used for SphK2 kinase reaction. For SphK1, exact same reaction condition was used except 0.5 ng of recombinant human SphK1 was used.
To evaluate the SphK selectivity of each compound, 125 μM of each compound in reaction buffer ([…] Tris, pH 8.0, […] MgCl2, and 0.1 mg/mL BSA) with 5% DMSO was incubated with either SphK1 or SphK2 in a 384-well solid white low volume microplate (Corning, Corning, NY), and the reaction was initiated by adding mixture of ATP and D-erythro-Sphingosine to a total volume of 5 μL, after 1 h incubation at room temperature with gentle shaking, the reaction was stopped by adding equal volume of ADP-Glo buffer and incubated for another hour to remove excess amount of ATP from the reaction. Afterwards, 10 μL of kinase detection reagent was added, mixed, and incubated for 30 min under dark. Luminescence output was recorded using a SpectraMax M5 Multi-Mode Microplate Readers (Molecular Devices, San Jose, CA), an integration time of 500 ms was used. All reactions were performed in triplicate. The enzyme activity of SphK in the presence of each compound was normalized to the no treatment control. […] The final data was calculated using Prism 7.0 (GraphPad Software, La Jolla, CA), IC50 was determined using Nonlinear regression (curve fit) four parameters dose-response calculations.

[3] = system: U-251 MG human glioblastoma cells; assay: U-251 MG cell viability, Hoechst 33258/propidium iodide imaging, 125 μM, 24 h; format: cell-based
Experimental: Cells were seeded into a 96-well microplate (Corning, Corning, NY) at 3000 cells/well and incubated for approximately 16 h. […] Cells were imaged using MetaXpress High-Content Image Acquisition and Analysis Software 6.1 and ImageXpress Micro XLS Wide-field High-Content Analysis System (Molecular Devices, San Jose, CA). Images were taken with a Nikon 10 CFI Plan Fluor objective. For all samples, triplicated measurements were performed.

[4] = system: U-251 MG cells; assay: CellTiter96 MTS cell viability dose response, U-251 MG; format: cell-based, human; conditions: read-out: IC50 (cell viability)
Experimental: The anti-tumor activity of these inhibitors was further examined at different doses.
Cell viability was determined using CellTiter96 MTS Assay and compared to DMSO treated control cells. IC50 values were calculated by non-linear regression analysis of the dose-response curve using GraphPad Prism version 8.00 for Windows (GraphPad Software).

T1 sequence (Q9NRA0 whole entry): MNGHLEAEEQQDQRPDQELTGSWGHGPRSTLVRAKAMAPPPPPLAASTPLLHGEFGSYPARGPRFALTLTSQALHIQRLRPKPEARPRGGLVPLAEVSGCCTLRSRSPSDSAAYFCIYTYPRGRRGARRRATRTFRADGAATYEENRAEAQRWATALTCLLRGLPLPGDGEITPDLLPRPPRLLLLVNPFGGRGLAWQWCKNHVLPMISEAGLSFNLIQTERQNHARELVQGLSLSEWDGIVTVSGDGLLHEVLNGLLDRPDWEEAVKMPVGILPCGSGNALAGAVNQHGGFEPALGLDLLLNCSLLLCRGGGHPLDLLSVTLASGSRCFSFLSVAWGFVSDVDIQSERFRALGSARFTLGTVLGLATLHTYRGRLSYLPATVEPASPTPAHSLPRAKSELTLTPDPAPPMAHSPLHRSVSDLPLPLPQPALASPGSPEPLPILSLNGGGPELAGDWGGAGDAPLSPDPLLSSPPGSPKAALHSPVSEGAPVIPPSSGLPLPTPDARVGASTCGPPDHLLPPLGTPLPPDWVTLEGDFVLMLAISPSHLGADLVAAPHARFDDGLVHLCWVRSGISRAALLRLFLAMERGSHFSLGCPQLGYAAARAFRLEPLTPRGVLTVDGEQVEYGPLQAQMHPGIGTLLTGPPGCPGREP

pIC50 [2]: 6.55
Compound: N=C(N)N1CCC[C@H]1Cc1nc(-c2ccc(Nc3nc(-c4cccc(C(F)(F)F)c4)cs3)cc2)no1 [Compound 13, reference compound]
pKi [1]: 7.05

Compound: Cl.N=C(N)N1CCC[C@H]1Cc1nc(-c2ccc(Cn3cc(-c4ccccc4)nn3)cc2)no1 [Compound 21a, (S)-2-((3-(4-((4-Phenyl-1H-1,2,3-triazol-1-yl)methyl)phenyl)-1,2,4-oxadiazol-5yl)methyl)pyrrolidine-1-carboximidamide hydrochloride]
pIC50 [2]: 6.40
antitumor activity / reduction of U-251 MG cell viability (in words) ([3]; hydrochloride): high anti-tumor activity; also recorded: significant reduction
pIC50 ([4]; Homo sapiens, U-251, 72 h): 4.77

pIC50 [2]: 6.34
Compound: Cl.N=C(N)N1CCC[C@H]1Cc1nc(-c2ccc(Cn3cc(-c4ccccn4)nn3)cc2)no1 [Compound 21c, (S)-2-((3-(4-((4-(Pyridin-2-yl)-1H-1,2,3-triazol-1-yl)methyl)phenyl)-1,2,4-oxadiazol-5-yl)methyl)pyrrolidine-1-carboximidamide hydrochloride]
selectivity/specificity for SphK2 over SphK1 ([2]; hydrochloride): high selectivity; also recorded: highest specificity

SphK2 inhibitory activity (in words) [2]: no inhibitory activity
Compound: CCCCc1cn(Cc2ccc(-c3noc(C[C@@H]4CCCN4C(=N)N)n3)cc2)nn1.Cl [Compound 21d, (S)-2-((3-(4-((4-Butyl-1H-1,2,3-triazol-1-yl)methyl)phenyl)-1,2,4-oxadiazol-5-yl)methyl)pyrrolidine-1-carboximidamide hydrochloride]
selectivity/specificity for SphK2 over SphK1 ([2]; hydrochloride): lowest specificity; also recorded: no selectivity

pIC50 [2]: 6.19
Compound: COc1ccc(-c2cn(Cc3ccc(-c4noc(C[C@@H]5CCCN5C(=N)N)n4)cc3)nn2)cc1.Cl [Compound 21e, (S)-2-((3-(4-((4-(4-Methoxyphenyl)-1H-1,2,3-triazol-1-yl)methyl)phenyl)-1,2,4-oxadiazol-5-yl)methyl)pyrrolidine-1-carboximidamide hydrochloride]
selectivity/specificity for SphK2 over SphK1 ([2]; hydrochloride): high selectivity; also recorded: highest specificity
antitumor activity / reduction of U-251 MG cell viability (in words) [3]: comparable reduction

SphK2 inhibitory activity (in words) [2]: no inhibitory activity
Compound: Cl.N=C(N)N1CCC[C@H]1Cc1nc(-c2ccc(Cn3cc(C4CC4)nn3)cc2)no1 [Compound 21f, (S)-2-((3-(4-((4-Cyclopropyl-1H-1,2,3-triazol-1-yl)methyl)phenyl)-1,2,4-oxadiazol-5-yl)methyl)pyrrolidine-1-carboximidamide hydrochloride]
selectivity/specificity for SphK2 over SphK1 ([2]; hydrochloride): lowest specificity; also recorded: no selectivity

Compound: Cl.Cn1cc(-c2cn(Cc3ccc(-c4noc(C[C@@H]5CCCN5C(=N)N)n4)cc3)nn2)cn1 [Compound 21g, (S)-2-((3-(4-((4-(1-Methyl-1H-pyrazol-4-yl)-1H-1,2,3-triazol-1-yl)methyl)phenyl)-1,2,4-oxadiazol-5-yl)methyl)pyrrolidine-1-carboximidamide hydrochloride]
selectivity/specificity for SphK2 over SphK1 ([2]; hydrochloride): high selectivity; also recorded: highest specificity
pIC50 [2]: 6.63

Compound: Cl.N=C(N)N1CCC[C@H]1c1nc(-c2ccc(Cn3cc(-c4ccc(C(F)(F)F)cc4)nn3)cc2)no1 [Compound 25b, (S)-2-((3-(4-((4-(4-(Trifluoromethyl)phenyl)-1H-1,2,3-triazol-1-yl)methyl)phenyl)-1,2,4-oxadiazol-5-yl)pyrrolidine-1-carboximidamide hydrochloride]
pIC50 [2]: 6.44
pIC50 ([4]; U-251 MG cells, 72 h, MTS): 4.91

Compound: Cl.N=C(N)N1CCC[C@H]1c1nc(-c2ccc(Cn3cc(-c4ccc(C(F)(F)F)cc4)nn3)cc2)no1 [Compound 25b]
antitumor activity / reduction of U-251 MG cell viability (in words) ([3]; hydrochloride): high anti-tumor activity; also recorded: higher antitumor activity; also recorded: tremendously decreased; also recorded: significant reduction

selectivity/specificity for SphK2 over SphK1 [2]: lowest specificity
pIC50 ([2]; hydrochloride): 6.05
Compound: Cl.N=C(N)N1CCC[C@H]1c1nc(-c2ccc(Cn3cc(-c4ccccn4)nn3)cc2)no1 [Compound 25c, (S)-2-(3-(4-((4-(Pyridin-2-yl)-1H-1,2,3-triazol-1-yl)methyl)phenyl)-1,2,4-oxadiazol-5-yl)pyrrolidine-1-carboximidamide hydrochloride]

Compound: COc1ccc(-c2cn(Cc3ccc(-c4noc([C@@H]5CCCN5C(=N)N)n4)cc3)nn2)cc1.Cl [Compound 25d, (S)-2-((3-(4-((4-(4-Methoxyphenyl)-1H-1,2,3-triazol-1-yl)methyl)phenyl)-1,2,4-oxadiazol-5-yl)-pyrrolidine-1-carboximidamide hydrochloride]
pIC50 [2]: 6.58
pIC50 ([4]; U-251 MG cells, 72 h, MTS): 4.11

Compound: COc1ccc(-c2cn(Cc3ccc(-c4noc([C@@H]5CCCN5C(=N)N)n4)cc3)nn2)cc1.Cl [Compound 25d]
antitumor activity / reduction of U-251 MG cell viability (in words) [3]: comparable reduction

Compound: N=C(N)N1CCC[C@H]1c1nc(-c2ccc(Cn3cc(-c4cccs4)nn3)cc2)no1 [Compound 25e, (S)-2-((3-(4-((4-(Thiophen-2-yl)-1H-1,2,3-triazol-1-yl)methyl)phenyl)-1,2,4-oxadiazol-5-yl)-pyrrolidine-1-carboximidamide hydrochloride]
pIC50 [2]: 6.16

Compound: CCCCc1cn(Cc2ccc(-c3noc([C@@H]4CCCN4C(=N)N)n3)cc2)nn1.Cl [Compound 25f, (S)-2-((3-(4-((4-Butyl-1H-1,2,3-triazol-1-yl)methyl)phenyl)-1,2,4-oxadiazol-5-yl)pyrrolidine-1-carboximidamide hydrochloride]
pIC50 [2]: 6.60

Compound: CCCCc1cn(Cc2ccc(-c3noc([C@@H]4CCCN4C(=N)N)n3)cc2)nn1.Cl [Compound 25f]
selectivity/specificity for SphK2 over SphK1 [2]: high selective

Compound: N=C(N)N1CCC[C@H]1c1nc(-c2ccc(Cn3cc(-c4ccc(F)cc4)nn3)cc2)no1 [Compound 25g, (S)-2-((3-(4-((4-(4-Fluorophenyl)-1H-1,2,3-triazol-1-yl)methyl)phenyl)-1,2,4-oxadiazol-5-yl)-pyrrolidine-1-carboximidamide hydrochloride]
pIC50 [2]: 6.41

Compound: Cl.N=C(N)N1CCC[C@H]1c1nc(-c2ccc(Cn3cc(C4CC4)nn3)cc2)no1 [Compound 25h, (S)-2-((3-(4-((4-Cyclopropyl-1H-1,2,3-triazol-1-yl)methyl)phenyl)-1,2,4-oxadiazol-5-yl)pyrrolidine-1-carboximidamide hydrochloride]
pIC50 [2]: 6.61

Compound: Cl.N=C(N)N1CCC[C@H]1c1nc(-c2ccc(Cn3cc(C4CC4)nn3)cc2)no1 [Compound 25h]
selectivity/specificity for SphK2 over SphK1 [2]: high selective

Compound: Cl.N=C(N)C1(c2nc(-c3ccc(Cn4cc(-c5ccccc5)nn4)cc3)no2)CC1 [Compound 29a, 1-(3-(4-((4-Phenyl-1H-1,2,3-triazol-1-yl)methyl)phenyl)-1,2,4-oxadiazol-5-yl)cyclopropanecarboximidamide hydrochloride]
selectivity/specificity for SphK2 over SphK1 [2]: highly selective
pIC50 [2]: 6.58

Compound: Cn1cc(-c2cn(Cc3ccc(-c4noc(C5(C(=N)N)CC5)n4)cc3)nn2)cn1 [Compound 29b, hydrochloride]
selectivity/specificity for SphK2 over SphK1 [2]: highly selective

pIC50 [2]: 6.57
Compound: Cn1nccc1-c1cn(Cc2ccc(-c3noc(C4(C(=N)N)CC4)n3)cc2)nn1 [Compound 29b, hydrochloride]

pIC50 [2]: 6.14
Compound: N=C(N)C1(c2nc(-c3ccc(Cn4cc(C5CC5)nn4)cc3)no2)CC1 [Compound 29c, 1-(3-(4-((4-Cyclopropyl-1H-1,2,3-triazol-1-yl)methyl)phenyl)-1,2,4-oxadiazol-5-yl)cyclopropanecarboximidamide hydrochloride]

Compound: ABC294640 [Compound 7, reference compound]
reduction of viability of U-251 MG cells ([3]; versus no treatment control): approximately 50%
